No end group written: not given here.
Legend:
NCS-1 = target: T1, NCS-1 (Homo sapiens, UniProt P62166); assay: Isothermal titration calorimetry, NCS-1 titrated into PQIQ peptide; format: binding; details: 100 μM PQIQ in cell, 1 mM NCS-1 in syringe, 25 °C, pH 7.5; complex aggregates
T1 construct: His tag (TEV-cleavable) (N, cleaved yes); made in house; host or cells: Escherichia coli BL21(DE3)
Method: The peptide used corresponds to residues 1903–1929 of the human P/Q receptor. The synthetic P/Q peptide, […] (hereafter termed the PQIQ peptide), was purchased from GenicBio. The peptide was delivered >95% pure.
Expression was induced overnight at 18 °C; cells were harvested, resuspended into lysis buffer [50 mM Tris-HCl (pH 7.5), 200 mM NaCl, 5 mM CaCl2, and Complete EDTA Free Protease Inhibitor (Roche Applied Science)], lysed, centrifuged, filtered, and loaded onto the Hiprep 16/10 Phenyl FF High Sub (GE Healthcare) column that was pre-equilibrated with buffer A [50 mM Tris-HCl (pH 7.5), 200 mM NaCl, and 5 mM CaCl2]. The column was extensively washed with buffer A and NCS-1 eluted using Milli-Q water. […] The purity of the sample was assessed by sodium dodecyl sulfate–polyacrylamide gel electrophoresis (SDS–PAGE) and deemed to be >95% pure. The eluted peak was concentrated and stored at −80 °C.
(§1) ITC experiments were performed using a MicroCal ITC200 instrument. […] If necessary, minor adjustments were made to the pH of the peptide solution. […] One injection of 0.2 μL, followed by 20 injections of 2 μL, was made with a 180 s spacing to allow the baseline to return after each injection. All experiments were performed in triplicate. The data were analyzed with a one-site (three-parameter) curve fitting conducted using the MicroCal-supported ITC module within Origin version 7.

[1] = Solubility / aggregation observed in ITC experiments; format: physicochemical; details: limits use of peptide as titrant in ITC; 50 mM Tris (pH 7.5), 50 mM NaCl, 5 mM CaCl2
Method: as §1

T1 sequence (P62166 whole entry, species assumed): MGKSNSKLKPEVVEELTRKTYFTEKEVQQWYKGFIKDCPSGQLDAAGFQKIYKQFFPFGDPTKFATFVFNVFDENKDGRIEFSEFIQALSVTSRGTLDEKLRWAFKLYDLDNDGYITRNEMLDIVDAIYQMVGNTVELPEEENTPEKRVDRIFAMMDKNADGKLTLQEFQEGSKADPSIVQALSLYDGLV

solubility [1]: limitations in PQIQ peptide solubility
Sequence: TVGKIYAAMMIMEYYRQSKAKKLQAMR [PQIQ peptide]
equilibrium binding constant (NCS-1): not possible to obtain reliable equilibrium binding constants
